For one assay, the target named is IadK2 (Variovorax paradoxus, UniProt T1X8R6). The assay is described as follows: ITC, auxins binding to IadK2. Here is the method:
(§1) ITC experiments were performed using a MicroCal PEAQ-ITC system (Malvern). All the experiments were performed at […] in a buffer containing 25 mM Tris-HCl (pH 7.5) and 150 mM NaCl (unless otherwise stated). […] Data was analyzed using the MicroCal PEAQ-ITC analysis software. All the measurements were repeated at least 2 times.

In assay [1] the test system is IadD/E-IadC dioxygenase system. Put plainly: In vitro IAA and analogs transformation assay, IadC + IadD/E. It is filed as biochemical, Variovorax paradoxus CL14. As to conditions: normalised, replicates. Here is the method: The reaction mixture was composed of 100 mM Tris-HCl (pH7.5), 250 μM reduced NADH, 10 μM ammonium iron (II) sulfate, and 3 μM of each enzyme component. […] The mixture was vortexed periodically to introduce oxygen for the reaction and was boiled to stop the reaction. After pelleting the precipitants, the supernatant was collected and mixed with 2 volumes of Salkowski reagent made of 0.5 M ferric chloride and 35% perchloric acid for the quantification of residual substrate by measuring the adsorption at 530 nm.

Assay [2] has as its target IadE (Variovorax paradoxus CL14). The assay is described as follows: cryo-EM structure; purified IadD/E complex with 20-fold molar excess of IAA, 2.6 Å (2.59 Å), C3 symmetry.
Assay [3] addresses IadD (Variovorax paradoxus CL14). Described as above.
In assay [4] the target is IadE (Variovorax paradoxus CL14). Put plainly: SEC; co-expressed IadD/E complex purified by cation exchange, 20 mg/ml, HiLoad 200 column, 25 mM Tris-HCl pH 7.5, 150 mM NaCl, 2 mM DTT; peak fractions on SDS-PAGE. Background: In gel filtration, larger molecules generally elute earlier.
A further assay deals with IadK3 (Variovorax paradoxus, UniProt A0A0H2LZ84). The assay is described as follows: ITC, auxins binding to IadK3. The arrangement: species or system Variovorax paradoxus CL14. As to the method: as §1
In general terms: In ITC the heat of successive injections is recorded.

The mark [5] stands for this setting: ITC, single-phase isotherm, auxin analogs to IadK2, mean ± SEM, read-out: KD.
Where [6] appears, read: IadK2, ITC, replicates, read-out: Kd.

Several values for one entry are separate records, joined by “and”; a condition that tells them apart may be missing. Equal entries are not always repeated. Where two headings read alike, the source gives them in different places.

Sequence of IadK2 (T1X8R6 entry or part of it): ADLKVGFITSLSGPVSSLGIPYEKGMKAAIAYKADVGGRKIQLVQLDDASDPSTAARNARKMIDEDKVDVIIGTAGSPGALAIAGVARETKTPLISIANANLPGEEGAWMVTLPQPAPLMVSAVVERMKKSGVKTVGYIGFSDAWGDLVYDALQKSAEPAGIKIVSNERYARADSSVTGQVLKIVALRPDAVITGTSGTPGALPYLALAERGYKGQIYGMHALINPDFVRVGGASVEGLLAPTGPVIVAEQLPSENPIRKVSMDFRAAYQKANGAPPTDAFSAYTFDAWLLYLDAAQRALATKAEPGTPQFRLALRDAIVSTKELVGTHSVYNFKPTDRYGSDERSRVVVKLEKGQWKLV
Sequence of IadK3 (A0A0H2LZ84 entry or part of it): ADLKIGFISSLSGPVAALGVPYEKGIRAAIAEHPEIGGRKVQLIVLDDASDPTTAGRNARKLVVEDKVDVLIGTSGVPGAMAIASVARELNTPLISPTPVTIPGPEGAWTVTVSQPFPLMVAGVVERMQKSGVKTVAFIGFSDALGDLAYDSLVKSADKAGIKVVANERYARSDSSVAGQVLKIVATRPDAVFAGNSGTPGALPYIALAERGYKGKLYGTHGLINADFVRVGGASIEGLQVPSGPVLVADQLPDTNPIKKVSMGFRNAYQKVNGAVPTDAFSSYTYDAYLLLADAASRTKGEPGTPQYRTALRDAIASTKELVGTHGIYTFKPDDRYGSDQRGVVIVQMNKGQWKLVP

As to `O=C(O)COc1ccc(Cl)cc1Cl` [2,4-D, 2,4-dichlorophenoxyacetic acid], the Kd on IadK2 (ITC, single-phase isotherm, auxin analogs to IadK2, mean ± SEM) was more than 100 µM; at IadK2 (IadK2, ITC, replicates), more than 100 µM.
For `O=C(O)Cc1cccc2ccccc12` [NAA, 1-naphthylacetic acid], the Kd at IadK2 (setting [5]) was 17 ± 2.2 µM; at IadK2 (setting [6]), 15 µM and 16 µM and 20 µM.
Regarding `O=C(O)Cc1c[nH]c2cccc(Cl)c12` [4-Cl-IAA, 4-chloroindole-3-acetic acid], the Kd at IadK2 (setting [5]) was found to be 15.2 ± 6.8 µM. Also, at IadK2 (setting [6]), the Kd is 7 µM and 23.8 µM and 15 µM. In assay [1], the “relative substrate level after reaction” value is 0.2122 and 0.2346 and 0.1886; the “relative substrate level before reaction” value was 1 and 0.9732 and 0.9831.
Consider IadE (enzyme), for which the stoichiometry N (usually a count of units in the complex or per binding partner) in assay [2] was determined as 3.
Regarding IadD (enzyme), in assay [3], the stoichiometry N was 3. In addition, the stoichiometry N (IadD:IadE molar ratio) in assay [4] turned out to be 1.
For `O=C(O)CCCc1c[nH]c2ccccc12` [IBA, indole-3-butyric acid], on IadK2 (setting [5]), the Kd came to 18 ± 7 µM. Besides, the Kd on IadK2 (setting [6]) was 28 µM and 11 µM and 16 µM. In addition, in assay [1], the “relative substrate level after reaction” value is 1.033 and 0.9962 and 0.976; the “relative substrate level before reaction” value was 1 and 1.003 and 0.9923.
As to `O=C(O)CCc1c[nH]c2ccccc12` [IPA, indole-3-propionic acid], the Kd at IadK2 (setting [5]) was 1.4 ± 0.2 µM. Also, the Kd on IadK2 (setting [6]) was 1.6 µM and 1.2 µM and 1.5 µM. Also, in assay [1], the “relative substrate level after reaction” value is 0.9755 and 1.034 and 0.9864; the “relative substrate level before reaction” value is 1 and 1.004 and 1.006.
Consider `O=C(O)Cc1c[nH]c2ccc(O)cc12` [5-HIAA, 5-hydroxy indole-3-acetic acid], for which, in assay [1], the “relative substrate level after reaction” value was 0.2661 and 0.2238 and 0.1936; the “relative substrate level before reaction” value was 1 and 1.014 and 0.9931.
For the molecule `O=C(O)Cc1ccccc1` [PAA, phenylacetic acid], on IadK2 (result in words), the “binding to IadK2 (ITC)” value is reported as “no binding”. The Kd at IadK3 is more than 100 µM; on IadK3 (read-out: ITC binding, IadK3, ITC, replicates) it was more than 100 µM. In addition, the “binding to IadK3 (ITC)” value on IadK3 (result in words) is listed as “no binding detected”.
As to `O=C(O)CC1C(=O)Nc2ccccc21` (centres unmarked) [oxIAA, 2-oxindole-3-acetic acid], the “association with IadK3” value on IadK3 (result in words, method not stated) is “weakly associate”.

For the origin of these results see paper PMC10374108, “Structural and biochemical characterization of the key components of an auxin degradation operon from the rhizosphere bacterium Variovorax” (PLOS Biology, 2023).
